Experimental data: PMC11672125 (JACS Au, 2024)

Biological target: Brd4 (Homo sapiens, UniProt O60885)
Experiment: Brd4 degradation by immunoblotting in PC-3 cells
Type: cell-based
Settings: siRNA-VHL 50 nM 72 h, then 30 nM SHD913 for 4 h

## siVHL: siRNA against VHL; sense sequence 5′- GGCUCAACUUCGACGGCGA −3′ (antisense UCGCCGUCGAAGUUGAGCC; chemistry not given here)
  effect of siVHL pretreatment on SHD913-mediated Brd4 degradation: reversed SHD913-mediated Brd4 degradation
